Reference: ChEMBL document CHEMBL1795286, “A concise synthesis and antimicrobial activities of 3-polyamino-23,24-bisnorcholanes as steroid-polyamine conjugates” (2011)

Tests used:
[1] = system: Staphylococcus aureus; assay: Antimicrobial activity against Staphylococcus aureus ATCC 6538P after 18 hrs by twofold agar dilution method; format: functional
[2] = system: Staphylococcus aureus; assay: Antimicrobial activity against Staphylococcus aureus ATCC 25923 after 18 hrs by twofold agar dilution method; format: functional; conditions: ATCC 25923, 18 h, read-out: MIC
[3] = system: Staphylococcus aureus; assay: Antimicrobial activity against Staphylococcus aureus giorgio after 18 hrs by twofold agar dilution method; format: functional
[4] = system: Staphylococcus aureus; assay: Antimicrobial activity against Staphylococcus aureus 77 after 18 hrs by twofold agar dilution method; format: functional; conditions: Staphylococcus aureus, 77, 18 h
[5] = system: Staphylococcus aureus; assay: Antimicrobial activity against Staphylococcus aureus 241 after 18 hrs by twofold agar dilution method; format: functional; conditions: Staphylococcus aureus, 241, 18 h
[6] = system: Staphylococcus epidermidis; assay: Antimicrobial activity against Staphylococcus epidermidis 887E after 18 hrs by twofold agar dilution method; format: functional
[7] = system: Enterococcus faecalis; assay: Antimicrobial activity against Enterococcus faecalis ATCC 29212 after 18 hrs by twofold agar dilution method; format: functional; conditions: ATCC 29212, 18 h
[8] = system: Escherichia coli; assay: Antimicrobial activity against Escherichia coli ATCC 25922 after 18 hrs by twofold agar dilution method; format: functional; conditions: ATCC 25922, 18 h
[9] = system: Escherichia coli; assay: Antimicrobial activity against Escherichia coli ATCC 10536 after 18 hrs by twofold agar dilution method; format: functional; conditions: ATCC 10536, 18 h
[10] = system: Escherichia coli; assay: Antimicrobial activity against Escherichia coli 3190Y after 18 hrs by twofold agar dilution method; format: functional
[11] = system: Escherichia coli; assay: Antimicrobial activity against Escherichia coli 851E after 18 hrs by twofold agar dilution method; format: functional
[12] = system: Salmonella typhimurium; assay: Antimicrobial activity against Salmonella Typhimurium ATCC 14028 after 18 hrs by two-fold agar dilution method; format: functional, Salmonella enterica subsp. enterica serovar Typhimurium; conditions: Salmonella enterica, ATCC 14028, 18 h
[13] = system: Salmonella typhimurium; assay: Antimicrobial activity against Salmonella typhimurium ATCC 13311 after 18 hrs by twofold agar dilution method; format: functional, Salmonella enterica subsp. enterica serovar Typhimurium; conditions: Salmonella enterica, ATCC 13311, 18 h
[14] = system: Klebsiella pneumoniae; assay: Antimicrobial activity against Klebsiella pneumoniae 2011E after 18 hrs by twofold agar dilution method; format: functional
[15] = system: Moraxella catarrhalis; assay: Antimicrobial activity against Moraxella catarrhalis 25240 after 18 hrs by twofold agar dilution method; format: functional; conditions: Moraxella catarrhalis, 25240, 18 h
[16] = system: Moraxella catarrhalis; assay: Antimicrobial activity against Moraxella catarrhalis C2431 after 18 hrs by twofold agar dilution method; format: functional; conditions: C2431, 18 h
[17] = system: Proteus vulgaris; assay: Antimicrobial activity against Proteus vulgaris 6059 after 18 hrs by twofold agar dilution method; format: functional; conditions: Proteus vulgaris, 6059, 18 h
[18] = system: Morganella morganii; assay: Antimicrobial activity against Morganella morganii 1375E after 18 hrs by twofold agar dilution method; format: functional
[19] = system: Citrobacter freundii; assay: Antimicrobial activity against Citrobacter freundii 8090 after 18 hrs by twofold agar dilution method; format: functional; conditions: Citrobacter freundii, 8090, 18 h
[20] = system: Citrobacter koseri; assay: Antimicrobial activity against Citrobacter diversus 2046 after 18 hrs by twofold agar dilution method; format: functional; conditions: Citrobacter koseri, 2046, 18 h
[21] = system: Enterobacter cloacae; assay: Antimicrobial activity against Enterobacter cloacae ATCC 27508 after 18 hrs by twofold agar dilution method; format: functional; conditions: ATCC 27508, 18 h
[22] = system: Enterobacter cloacae; assay: Antimicrobial activity against Enterobacter cloacae P99 after 18 hrs by twofold agar dilution method; format: functional; conditions: P99, 18 h
[23] = system: Serratia marcescens; assay: Antimicrobial activity against Serratia marcescens ATCC 27117 after 18 hrs by twofold agar dilution method; format: functional; conditions: ATCC 27117, 18 h
[24] = system: Serratia marcescens; assay: Antimicrobial activity against Serratia marcescens 1826E after 18 hrs by twofold agar dilution method; format: functional
[25] = system: Acinetobacter calcoaceticus; assay: Antimicrobial activity against Acinetobacter calcoaceticus ATCC 15473 after 18 hrs by twofold agar dilution method; format: functional; conditions: ATCC 15473, 18 h
[26] = system: Micrococcus luteus; assay: Antimicrobial activity against Micrococcus luteus ATCC 9341 after 18 hrs by twofold agar dilution method; format: functional; conditions: ATCC 9341, 18 h
[27] = system: Bacillus cereus; assay: Antimicrobial activity against Bacillus cereus ATCC 27348 after 18 hrs by twofold agar dilution method; format: functional; conditions: ATCC 27348, 18 h
[28] = system: Bacillus subtilis; assay: Antimicrobial activity against Bacillus subtilis ATCC 6633 after 18 hrs by twofold agar dilution method; format: functional; conditions: ATCC 6633, 18 h
[29] = system: Bacillus licheniformis; assay: Antimicrobial activity against Bacillus licheniformis EMR after 18 hrs by twofold agar dilution method; format: functional
[30] = system: Pseudomonas aeruginosa; assay: Antimicrobial activity against Pseudomonas aeruginosa 6065Y after 18 hrs by twofold agar dilution method; format: functional
[31] = system: Klebsiella aerogenes; assay: Antimicrobial activity against Klebsiella aerogenes harboring beta-lactamase SHV-1 1976E mutant after 18 hrs by twofold agar dilution method; format: functional

Row | Structure (SMILES) | MIC [1] | MIC [2] | MIC [3] | MIC ([4]; read-out: MIC) | MIC [11] | MIC [12] | MIC [13] | MIC [14] | MIC [17] | MIC [18] | MIC [19] | MIC [20] | MIC [21] | MIC [22] | MIC [23] | MIC [24] | MIC [25] | MIC [28] | MIC [30] | MIC [31] | other results
1 | C[C@H](CO)[C@H]1CC[C@H]2[C@@H]3CC[C@H]4C[C@H](NCCCNCCCCN)CC[C@]4(C)[C@H]3CC[C@]12C.Cl.Cl.Cl | 4 µg/mL | 16 µg/mL | 8 µg/mL | 4 µg/mL | > 32 µg/mL | > 32 µg/mL | > 32 µg/mL | > 32 µg/mL | > 32 µg/mL | > 32 µg/mL | > 32 µg/mL | > 32 µg/mL | > 32 µg/mL | > 32 µg/mL | > 32 µg/mL | > 32 µg/mL | > 32 µg/mL | 8 µg/mL | > 32 µg/mL | > 32 µg/mL | MIC ([5]; read-out: MIC): 4 µg/mL; MIC ([6]; read-out: MIC): 16 µg/mL; MIC ([7]; read-out: MIC): 32 µg/mL; MIC ([8]; read-out: MIC): 32 µg/mL; MIC ([9]; read-out: MIC): 32 µg/mL; MIC [10]: > 32 µg/mL; MIC ([15]; read-out: MIC): < 32 µg/mL; MIC [16]: > 32 µg/mL; MIC ([26]; read-out: MIC): 8 µg/mL; MIC [27]: > 32 µg/mL; MIC ([29]; read-out: MIC): 16 µg/mL
2 | C[C@H](CO)[C@H]1CC[C@H]2[C@@H]3CC[C@H]4C[C@@H](NCCCNCCCCN)CC[C@]4(C)[C@H]3CC[C@]12C.Cl.Cl.Cl | 8 µg/mL | 16 µg/mL | 16 µg/mL | 32 µg/mL | > 32 µg/mL | > 32 µg/mL | > 32 µg/mL | > 32 µg/mL | > 32 µg/mL | > 32 µg/mL | > 32 µg/mL | > 32 µg/mL | > 32 µg/mL | > 32 µg/mL | > 32 µg/mL | > 32 µg/mL | > 32 µg/mL | 8 µg/mL | > 32 µg/mL | > 32 µg/mL | MIC ([5]; read-out: MIC): 8 µg/mL; MIC ([6]; read-out: MIC): 16 µg/mL; MIC [7]: > 32 µg/mL; MIC ([8]; read-out: MIC): < 32 µg/mL; MIC ([9]; read-out: MIC): < 32 µg/mL; MIC [10]: > 32 µg/mL; MIC ([15]; read-out: MIC): 32 µg/mL; MIC ([16]; read-out: MIC): 32 µg/mL; MIC ([26]; read-out: MIC): 16 µg/mL; MIC [27]: > 32 µg/mL; MIC [29]: > 32 µg/mL
3 | C[C@H](CO)[C@H]1CC[C@H]2[C@@H]3CC[C@@H]4C[C@H](NCCCNCCCCN)CC[C@]4(C)[C@H]3CC[C@]12C.Cl.Cl.Cl | 32 µg/mL | 32 µg/mL | 32 µg/mL | 32 µg/mL | > 32 µg/mL | > 32 µg/mL | > 32 µg/mL | > 32 µg/mL | > 32 µg/mL | > 32 µg/mL | > 32 µg/mL | > 32 µg/mL | > 32 µg/mL | > 32 µg/mL | > 32 µg/mL | > 32 µg/mL | > 32 µg/mL | 32 µg/mL | > 32 µg/mL | > 32 µg/mL | MIC [5]: > 32 µg/mL; MIC [6]: > 32 µg/mL; MIC [7]: > 32 µg/mL; MIC [8]: > 32 µg/mL; MIC ([9]; read-out: MIC): < 32 µg/mL; MIC ([10]; read-out: MIC): < 32 µg/mL; MIC [15]: > 32 µg/mL; MIC [16]: > 32 µg/mL; MIC [26]: > 32 µg/mL; MIC [27]: > 32 µg/mL; MIC ([29]; read-out: MIC): < 32 µg/mL
4 | C[C@H](CO)[C@H]1CC[C@H]2[C@@H]3CC[C@@H]4C[C@@H](NCCCNCCCCN)CC[C@]4(C)[C@H]3CC[C@]12C.Cl.Cl.Cl | 8 µg/mL | 16 µg/mL | 16 µg/mL |  | > 32 µg/mL | > 32 µg/mL | > 32 µg/mL | > 32 µg/mL | > 32 µg/mL | > 32 µg/mL | > 32 µg/mL | > 32 µg/mL | > 32 µg/mL | > 32 µg/mL | > 32 µg/mL | > 32 µg/mL | > 32 µg/mL | 8 µg/mL | > 32 µg/mL | > 32 µg/mL | MIC [4]: > 32 µg/mL; MIC ([5]; read-out: MIC): 8 µg/mL; MIC ([6]; read-out: MIC): 32 µg/mL; MIC ([7]; read-out: MIC): < 32 µg/mL; MIC ([8]; read-out: MIC): < 32 µg/mL; MIC [9]: > 32 µg/mL; MIC [10]: > 32 µg/mL; MIC [15]: > 32 µg/mL; MIC [16]: > 32 µg/mL; MIC ([26]; read-out: MIC): 8 µg/mL; MIC ([27]; read-out: MIC): 32 µg/mL; MIC ([29]; read-out: MIC): 32 µg/mL
5 | C[C@H](CO)[C@H]1CC[C@H]2[C@@H]3CC[C@H]4C[C@H](NCCCNCCCCNCCCN)CC[C@]4(C)[C@H]3CC[C@]12C.Cl.Cl.Cl.Cl | 4 µg/mL | 16 µg/mL | 16 µg/mL | 16 µg/mL | > 32 µg/mL | > 32 µg/mL | > 32 µg/mL | > 32 µg/mL | > 32 µg/mL | > 32 µg/mL | > 32 µg/mL | > 32 µg/mL | > 32 µg/mL | > 32 µg/mL | > 32 µg/mL | > 32 µg/mL | > 32 µg/mL | 8 µg/mL | > 32 µg/mL | > 32 µg/mL | MIC ([5]; read-out: MIC): 4 µg/mL; MIC ([6]; read-out: MIC): 8 µg/mL; MIC ([7]; read-out: MIC): < 32 µg/mL; MIC [8]: > 32 µg/mL; MIC ([9]; read-out: MIC): < 32 µg/mL; MIC ([10]; read-out: MIC): < 32 µg/mL; MIC ([15]; read-out: MIC): < 32 µg/mL; MIC ([16]; read-out: MIC): < 32 µg/mL; MIC ([26]; read-out: MIC): 16 µg/mL; MIC ([27]; read-out: MIC): < 32 µg/mL; MIC ([29]; read-out: MIC): 32 µg/mL
